How the values were obtained:
Experiment in all cases: SelectScreen Z'LYTE kinase profiling
Format in all cases: biochemical
Conditions in all cases: ATP at apparent KM
ROCK2 = ROCK2 (Homo sapiens, UniProt O75116)
Method: (§1) protein kinases at a compound concentration of 1 µM. Measurements were performed in duplicates
(§2) and at the particular apparent ATP KM of each individual kinase employing the activity based Z’LYTE®
(§3) kinase assay of the SelectScreen® Kinase Profiling Services (ThermoFisher Scientific).
(§4) kinases at a compound concentration of 1 µM. Measurements were performed in duplicates and at
(§5) the particular apparent ATP KM of each individual kinase employing the activity based Z’LYTE® kinase
(§6) assay of the SelectScreen® Kinase Profiling Services (ThermoFisher Scientific).

STK4 (MST1) = target: T1, STK4 (MST1) (Homo sapiens, UniProt Q13043)
T1 sequence (Q13043 1-487): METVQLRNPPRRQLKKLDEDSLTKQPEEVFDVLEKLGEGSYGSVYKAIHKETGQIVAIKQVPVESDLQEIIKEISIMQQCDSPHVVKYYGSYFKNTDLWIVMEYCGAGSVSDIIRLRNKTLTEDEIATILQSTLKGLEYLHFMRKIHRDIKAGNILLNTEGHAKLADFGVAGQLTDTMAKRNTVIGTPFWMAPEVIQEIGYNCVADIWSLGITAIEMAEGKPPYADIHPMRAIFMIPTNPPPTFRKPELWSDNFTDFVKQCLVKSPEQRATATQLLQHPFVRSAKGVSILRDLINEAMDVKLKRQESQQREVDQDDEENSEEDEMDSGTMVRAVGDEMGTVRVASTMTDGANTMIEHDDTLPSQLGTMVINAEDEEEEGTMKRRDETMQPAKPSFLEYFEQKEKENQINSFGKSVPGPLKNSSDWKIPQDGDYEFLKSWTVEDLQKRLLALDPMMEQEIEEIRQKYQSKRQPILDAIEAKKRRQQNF

MARK3 = MARK3 (Homo sapiens, UniProt P27448)
Method: as §1, §2, §3, §4, §5, §6

PRKCB2 (PKC beta II) = PRKCB2 (PKC beta II) (Homo sapiens, UniProt P05771)
Method: as §1, §2, §3, §4, §5, §6

PRKX = target: T2, PRKX (Homo sapiens, UniProt P51817)
T2 sequence (P51817 1-358): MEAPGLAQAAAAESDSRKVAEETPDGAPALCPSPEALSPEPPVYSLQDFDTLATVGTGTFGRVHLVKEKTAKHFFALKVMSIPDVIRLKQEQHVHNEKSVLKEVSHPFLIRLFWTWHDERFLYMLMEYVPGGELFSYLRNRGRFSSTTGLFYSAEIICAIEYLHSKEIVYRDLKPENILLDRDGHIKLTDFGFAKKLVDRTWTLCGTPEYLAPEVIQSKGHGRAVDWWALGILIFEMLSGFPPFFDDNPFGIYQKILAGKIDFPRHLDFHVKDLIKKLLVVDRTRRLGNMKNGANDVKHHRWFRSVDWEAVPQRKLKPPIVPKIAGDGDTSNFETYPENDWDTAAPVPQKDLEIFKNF
Method: as §1, §2, §3, §4, §5, §6

MKNK1 (MNK1) = MKNK1 (MNK1) (Homo sapiens, UniProt Q9BUB5)
Method: as §1, §2, §3, §4, §5, §6

ITK = target: T3, ITK (Homo sapiens, UniProt Q08881)
T3 sequence (Q08881 1-620): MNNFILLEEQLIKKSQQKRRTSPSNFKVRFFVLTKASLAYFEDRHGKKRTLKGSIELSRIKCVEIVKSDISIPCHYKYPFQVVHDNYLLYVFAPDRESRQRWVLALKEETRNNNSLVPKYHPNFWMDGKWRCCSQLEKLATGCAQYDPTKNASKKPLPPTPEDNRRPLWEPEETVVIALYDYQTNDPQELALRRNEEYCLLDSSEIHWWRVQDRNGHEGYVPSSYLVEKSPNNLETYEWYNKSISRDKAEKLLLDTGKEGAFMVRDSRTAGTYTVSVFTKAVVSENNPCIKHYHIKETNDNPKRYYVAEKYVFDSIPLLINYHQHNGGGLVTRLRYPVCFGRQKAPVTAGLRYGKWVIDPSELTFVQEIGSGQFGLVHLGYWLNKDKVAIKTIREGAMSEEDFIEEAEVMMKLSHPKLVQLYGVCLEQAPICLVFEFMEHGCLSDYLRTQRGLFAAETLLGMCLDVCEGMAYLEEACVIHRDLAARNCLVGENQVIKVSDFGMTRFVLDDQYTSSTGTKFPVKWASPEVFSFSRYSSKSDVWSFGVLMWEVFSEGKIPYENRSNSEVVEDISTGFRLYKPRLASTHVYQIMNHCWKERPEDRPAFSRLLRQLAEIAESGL
Method: as §1, §2, §3, §4, §5, §6

CAMK4 (CaMKIV) = target: T4, CAMK4 (CaMKIV) (Homo sapiens, UniProt Q16566)
T4 sequence (Q16566 1-473): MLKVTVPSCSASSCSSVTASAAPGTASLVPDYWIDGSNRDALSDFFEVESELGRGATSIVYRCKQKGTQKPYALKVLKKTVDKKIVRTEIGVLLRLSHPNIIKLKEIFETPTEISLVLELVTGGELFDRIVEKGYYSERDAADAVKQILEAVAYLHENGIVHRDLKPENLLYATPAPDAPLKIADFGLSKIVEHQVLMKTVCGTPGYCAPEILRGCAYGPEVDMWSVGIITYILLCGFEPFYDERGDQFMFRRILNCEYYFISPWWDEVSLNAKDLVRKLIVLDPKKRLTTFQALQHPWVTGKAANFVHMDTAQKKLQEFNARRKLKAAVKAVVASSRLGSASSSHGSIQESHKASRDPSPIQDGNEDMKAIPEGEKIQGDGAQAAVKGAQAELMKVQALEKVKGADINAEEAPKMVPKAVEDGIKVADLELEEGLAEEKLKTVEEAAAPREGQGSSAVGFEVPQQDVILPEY
Method: as §1, §2, §3, §4, §5, §6

GRK7 = target: T5, GRK7 (Homo sapiens, UniProt Q8WTQ7)
T5 sequence (Q8WTQ7 1-553): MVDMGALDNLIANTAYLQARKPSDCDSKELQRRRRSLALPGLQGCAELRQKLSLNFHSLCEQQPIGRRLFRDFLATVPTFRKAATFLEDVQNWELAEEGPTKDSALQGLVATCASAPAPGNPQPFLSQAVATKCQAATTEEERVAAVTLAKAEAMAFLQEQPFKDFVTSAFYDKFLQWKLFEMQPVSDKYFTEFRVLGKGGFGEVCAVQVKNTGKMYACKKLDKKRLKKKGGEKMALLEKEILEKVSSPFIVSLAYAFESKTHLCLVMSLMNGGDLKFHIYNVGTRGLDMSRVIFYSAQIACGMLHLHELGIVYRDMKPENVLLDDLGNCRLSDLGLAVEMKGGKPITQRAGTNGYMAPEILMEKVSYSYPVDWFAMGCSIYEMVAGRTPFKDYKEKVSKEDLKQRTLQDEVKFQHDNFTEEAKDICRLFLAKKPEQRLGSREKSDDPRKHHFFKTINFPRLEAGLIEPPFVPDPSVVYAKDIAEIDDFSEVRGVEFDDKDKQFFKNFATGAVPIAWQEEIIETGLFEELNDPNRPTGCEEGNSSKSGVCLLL
Method: as §1, §2, §3, §4, §5, §6

Sequence of ROCK2 (O75116 whole entry): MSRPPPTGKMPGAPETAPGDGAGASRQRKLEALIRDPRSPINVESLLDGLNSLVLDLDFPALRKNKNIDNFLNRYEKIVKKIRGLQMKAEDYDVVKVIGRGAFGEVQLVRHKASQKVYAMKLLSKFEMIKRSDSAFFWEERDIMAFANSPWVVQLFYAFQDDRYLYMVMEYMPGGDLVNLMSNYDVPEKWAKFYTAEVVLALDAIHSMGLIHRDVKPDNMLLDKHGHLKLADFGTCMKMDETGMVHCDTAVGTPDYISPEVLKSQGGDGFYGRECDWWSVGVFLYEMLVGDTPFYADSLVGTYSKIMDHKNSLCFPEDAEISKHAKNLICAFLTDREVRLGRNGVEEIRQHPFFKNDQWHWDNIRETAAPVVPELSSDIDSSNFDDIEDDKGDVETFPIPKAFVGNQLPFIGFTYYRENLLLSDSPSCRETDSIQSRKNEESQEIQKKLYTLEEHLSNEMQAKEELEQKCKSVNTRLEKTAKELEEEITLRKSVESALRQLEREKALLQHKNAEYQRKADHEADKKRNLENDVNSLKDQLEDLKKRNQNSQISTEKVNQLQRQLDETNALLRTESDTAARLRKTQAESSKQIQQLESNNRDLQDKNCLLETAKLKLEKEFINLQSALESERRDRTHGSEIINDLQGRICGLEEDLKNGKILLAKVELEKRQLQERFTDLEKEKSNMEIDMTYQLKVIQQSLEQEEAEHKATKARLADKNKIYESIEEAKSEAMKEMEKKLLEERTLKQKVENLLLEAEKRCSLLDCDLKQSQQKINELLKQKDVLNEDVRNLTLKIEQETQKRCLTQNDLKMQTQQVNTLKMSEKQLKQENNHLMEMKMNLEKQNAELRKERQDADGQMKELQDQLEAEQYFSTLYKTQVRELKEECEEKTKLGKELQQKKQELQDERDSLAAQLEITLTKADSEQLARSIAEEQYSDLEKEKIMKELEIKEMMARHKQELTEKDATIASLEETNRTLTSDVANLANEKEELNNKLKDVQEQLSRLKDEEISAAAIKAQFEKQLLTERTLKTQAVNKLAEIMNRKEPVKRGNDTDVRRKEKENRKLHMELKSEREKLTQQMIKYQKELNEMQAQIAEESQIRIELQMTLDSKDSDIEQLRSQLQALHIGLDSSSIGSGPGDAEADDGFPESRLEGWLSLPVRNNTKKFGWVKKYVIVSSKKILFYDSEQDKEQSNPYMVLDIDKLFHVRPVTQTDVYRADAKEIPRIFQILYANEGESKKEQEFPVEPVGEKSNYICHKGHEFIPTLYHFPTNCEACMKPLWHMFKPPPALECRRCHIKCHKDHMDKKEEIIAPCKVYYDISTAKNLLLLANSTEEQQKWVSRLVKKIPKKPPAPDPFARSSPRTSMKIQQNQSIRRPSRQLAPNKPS
Sequence of MARK3 (P27448 whole entry): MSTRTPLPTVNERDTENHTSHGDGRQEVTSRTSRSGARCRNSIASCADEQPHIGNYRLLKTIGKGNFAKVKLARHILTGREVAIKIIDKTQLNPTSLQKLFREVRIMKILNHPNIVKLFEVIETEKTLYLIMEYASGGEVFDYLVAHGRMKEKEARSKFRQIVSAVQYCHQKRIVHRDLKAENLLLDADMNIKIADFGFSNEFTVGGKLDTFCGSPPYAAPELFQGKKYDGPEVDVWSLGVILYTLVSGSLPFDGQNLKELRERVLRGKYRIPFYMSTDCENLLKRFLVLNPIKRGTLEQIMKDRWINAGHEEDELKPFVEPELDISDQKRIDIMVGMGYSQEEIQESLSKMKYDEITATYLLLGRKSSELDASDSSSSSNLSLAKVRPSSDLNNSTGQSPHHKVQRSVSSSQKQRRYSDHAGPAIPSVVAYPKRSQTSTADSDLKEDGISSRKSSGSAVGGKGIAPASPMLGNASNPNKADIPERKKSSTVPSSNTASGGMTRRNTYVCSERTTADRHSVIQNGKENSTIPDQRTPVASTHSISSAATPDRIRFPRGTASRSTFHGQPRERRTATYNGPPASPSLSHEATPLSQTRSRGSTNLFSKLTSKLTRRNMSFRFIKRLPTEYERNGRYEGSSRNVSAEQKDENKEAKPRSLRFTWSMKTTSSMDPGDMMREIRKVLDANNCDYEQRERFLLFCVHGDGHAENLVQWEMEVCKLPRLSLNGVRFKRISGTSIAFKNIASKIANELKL
Sequence of MKNK1 (MNK1) (Q9BUB5 whole entry): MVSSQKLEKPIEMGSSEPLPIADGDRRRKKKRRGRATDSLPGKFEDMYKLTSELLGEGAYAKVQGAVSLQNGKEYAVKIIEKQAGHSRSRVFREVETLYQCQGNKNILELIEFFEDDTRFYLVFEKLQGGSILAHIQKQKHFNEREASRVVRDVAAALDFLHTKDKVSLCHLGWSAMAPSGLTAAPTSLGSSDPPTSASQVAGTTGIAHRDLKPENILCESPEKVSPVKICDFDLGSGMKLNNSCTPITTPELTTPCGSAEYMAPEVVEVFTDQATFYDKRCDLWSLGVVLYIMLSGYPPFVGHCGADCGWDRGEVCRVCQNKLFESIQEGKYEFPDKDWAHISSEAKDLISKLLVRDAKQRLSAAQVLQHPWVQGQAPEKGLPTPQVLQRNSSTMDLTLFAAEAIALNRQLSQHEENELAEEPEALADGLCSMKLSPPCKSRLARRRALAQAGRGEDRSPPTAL
Sequence of PRKCB2 (PKC beta II) (P05771 1-673 isoform P05771-2): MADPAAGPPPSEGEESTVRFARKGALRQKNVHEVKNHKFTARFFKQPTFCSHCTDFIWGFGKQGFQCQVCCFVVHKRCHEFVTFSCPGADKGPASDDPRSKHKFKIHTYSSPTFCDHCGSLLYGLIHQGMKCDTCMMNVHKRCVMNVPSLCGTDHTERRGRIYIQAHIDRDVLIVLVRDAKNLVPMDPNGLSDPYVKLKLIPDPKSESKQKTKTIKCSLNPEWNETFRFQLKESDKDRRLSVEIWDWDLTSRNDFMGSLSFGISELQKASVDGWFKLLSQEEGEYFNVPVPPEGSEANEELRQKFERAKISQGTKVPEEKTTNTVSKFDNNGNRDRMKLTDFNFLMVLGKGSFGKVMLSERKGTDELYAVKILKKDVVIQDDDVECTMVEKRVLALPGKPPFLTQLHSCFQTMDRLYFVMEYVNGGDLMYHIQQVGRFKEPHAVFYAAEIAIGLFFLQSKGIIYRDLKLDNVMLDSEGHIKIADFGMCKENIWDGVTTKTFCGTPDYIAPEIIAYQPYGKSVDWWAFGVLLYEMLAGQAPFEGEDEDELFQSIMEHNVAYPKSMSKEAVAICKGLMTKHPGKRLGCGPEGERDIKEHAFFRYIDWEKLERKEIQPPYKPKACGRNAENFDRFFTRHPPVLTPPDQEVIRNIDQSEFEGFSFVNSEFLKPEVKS

| SMILES | inhibition at 1 µM (ROCK2) | inhibition at 1 µM (STK4 (MST1)) | inhibition at 1 µM (MARK3) | inhibition at 1 µM (PRKCB2 (PKC beta II)) | inhibition at 1 µM (PRKX) | inhibition at 1 µM (MKNK1 (MNK1)) | inhibition at 1 µM (ITK) | inhibition at 1 µM (CAMK4 (CaMKIV)) | inhibition at 1 µM (GRK7) |
| --- | --- | --- | --- | --- | --- | --- | --- | --- | --- |
| C=CC(=O)Nc1ccc2c(c1)n(C1CCN(Cc3ccc(-c4nc5cc[nH]c(=O)c5cc4-c4ccccc4)cc3)CC1)c(=O)n2C [24b] | 9% | 6% | -1% | -5% | -1% | -22% | -9% | -1% | -4% |
| C=CC(=O)Nc1cccc(C(=O)NC2CCN(Cc3ccc(-c4nc5cc[nH]c(=O)c5cc4-c4ccccc4)cc3)CC2)c1 [30b] | 21% | 7% | 3% | -1% | -6% | 10% | 1% | 10% | 5% |
| C=CC(=O)Nc1cc(NC(=O)NC2CCN(Cc3ccc(-c4nc5cc[nH]c(=O)c5cc4-c4ccccc4)cc3)CC2)ccc1Cl [compound 27] | 31% | 14% | 3% | -12% | 3% | 29% | 8% | 8% | 5% |

From publication PMC6430017, “Structural and chemical insights into the covalent-allosteric inhibition of the protein kinase Akt” (Chemical Science, 2019)
